Results taken from patent US12016905B2, “Pharmaceutical composition for prevention or treatment of preterm birth” (KOREA UNIVERSITY RESEARCH AND BUSINESS FOUNDATION, priority 2019, dated 2024).
Entries after “also recorded” stand apart in the source; their conditions may differ.

Experiments:
[1] = test system: fibroblasts isolated from cervical cells of a mouse; assay: Western blot of α-SMA and type I collagen in cervical fibroblasts treated with TGF-β1; format: cell-based
Protocol: (§1) The experiment process will be described with reference to FIG. 5. Cells were isolated from the cervixes of 4- to 6-week old C57BL/6 mice and subjected to primary cell culture in 60 mm dishes (step p0). After step […] is performed by culturing for 12 to 15 days, the number of fibroblasts was measured, and fibroblasts were seeded in a 6 well dish at a density of about 0.3×10^6 cells/dish, followed by secondary culture (step p2). After 1 day from the secondary culture, it was treated for 2 hours in a serum-free medium, and then treated with 10 ng/ml of TGF-β1 per dish to induce differentiation into myofibroblasts, and experimental group was treated with SB-431542, which is a TGF-1 inhibitor, at each concentration of 0, 2, 8 and 16
UM. Two days after drug treatment, cells were washed with 10× phosphate buffered saline (PBS; Affymetrix), and proteins were extracted with RIPA buffer. Western blot was performed to investigate the expression levels of α-SMA, a marker of myofibroblasts, and COLI, a marker of collagen.
As the primary antibodies, α-smooth muscle actin (1:1000) and type I collagen (1:500) antibody were reacted at 4° C. overnight, and as the secondary antibody, anti-mouse IgG (CellNest, USA) was added thereto and was detected after the reaction for 1 hour at room temperature.

[2] = test system: fibroblasts isolated from cervical cells of a mouse; assay: as above; format: cell-based; remark: listed apart in the source
cervix of C57BL/6 mice = assay: M/C ratio (α-SMA/type I collagen, Western blot) in cervical tissue after cervical excision and 3 weeks of drug administration; format: in vivo, mouse
Protocol: Sexually mature female C57BL/6 mice were used for experiments in vivo. The laboratory was maintained at a constant temperature (22 to 24° C.) with a 12-hour day/night cycle. Partial cervical tissue excision was performed at each 5-week old. Specifically, each mouse was anesthetized by inhalation of 2 to 4% isoflurane, and then the cervix thereof was grasped by using forceps, and an excision was made to a depth of 1 mm using a scalpel. In order to minimize bleeding after excision, each mouse was compressed to stop bleeding. The length of the cervix was 2.5 mm, about 40% of the cervix was excised, and the average weight of the excised tissues was 7 mg.
At the same time as the cervical tissue excision, liquid fibronectin, and SB-431542 dissolved in DMSO were injected into the cervix through the vagina using a feeding needle.
Liquid into the fibronectin (plasma) was infused cervix through the vagina daily for 3 weeks at each dose of 20 mg and 0.2 mg (20 mg, diluted 10 times, expressed as FN (X10)). SB-431542 was dissolved in 5% DMSO, and infused into the cervix through the vagina daily for 3 weeks at each dosage of 20 mg and 0.2 mg (20 mg, diluted 10 times, indicated as SB-431542 (X10). After the drug treatment for 3 weeks, samples were obtained from the proximal cervix and distal cervix regions divided in the cervical tissue (see FIG. 13).
The protein extraction method for confirming the expression of α-SMA and type I collagen (Collagen I) was as follows. After an RIPA buffer (RIPA lysis buffer, 150 mM NaCl, 1% Triton X-100, 1% SD, 0.1% SDS, 50 mM Tris-13 HCl, 2 mM EDTA) and protease inhibitor cocktail (GenDEPOT, P3100-005) were mixed, 100 ul of the mixture was added to separate cervical tissue in each region and pulverized using a homogenizer. After the pulverized product was left on ice for 40 minutes, centrifugation was performed for 15 minutes using a centrifuge (13,000 rpm, 4 degrees). Only the supernatant was used after storage in a new tube. Protein quantification was carried out by a Bradford method (Protein assay dye reagent concentrate buffer, BioRad).
Western blot method for confirming the expression of α-SMA and type I collagen was as follows. The extracted protein was loaded on a 10% SDS PAGE gel at 5 μg each and transferred to a nitrocellulose membrane. After blocking with 5% skim milk, α-smooth muscle actin antibody (1:1000, NSJ Bioreagents, V2001) as the primary antibodies, and type I collagen antibody (1:500, Abcam, ab88147), GAPDH (1:1000, Santa Cruz, sc376559) were reacted at 4° ° C.overnight, and anti-mouse IgG (CellNest, USA) as a secondary antibody was added thereto and reacted for 1 hour at room temperature, and then was developed and detected by using an ECL kit (SuperSignal West Pico PLUS Chemiluminescent Substrate, Thermo Scientific).
For oral administration (PO), the drug was administered to the esophagus through the mouth using a feeding needle at the same time as the cervical tissue excision. SB-431542 was dissolved in 5% DMSO and injected in an amount of 10 mg/kg with each 100 ul for 3 weeks.
For intraperitoneal infusion (IP), the drug was administered intraperitoneally using an insulin syringe at the same time as the cervical tissue excision. SB-431542 was dissolved in 5% DMSO and infused in an amount of 10 mg/kg with each 100 ul for 3 weeks.

[3] = test system: fibroblasts isolated from cervical cells of a mouse; assay: mRNA expression level of α-SMA in cervical fibroblasts treated with TGF-β1; format: cell-based; conditions: 8 μM SB-431542 with TGF-β1
Protocol: as §1

[4] = test system: fibroblasts isolated from cervical cells of a mouse; assay: Immunofluorescence staining for α-SMA protein in cervical fibroblasts treated with TGF-β1; format: cell-based; conditions: treated simultaneously with TGF-β1 and SB-431542
Protocol: as §1

[5] = intravaginal, 0.2 mg (X10) daily for 3 weeks, versus cervical excision group
[6] = intravaginal, 20 mg daily for 3 weeks, versus cervical excision group
[7] = plasma fibronectin 2 μg/cm2 per well together with TGF-β1

Molecule: TGF-β1: transforming growth factor beta1, used to induce differentiation of fibroblasts into myofibroblasts
- collagen 1 expression ([1]; TGF-β1 10 ng/ml): no effect
- expression level of α-SMA ([1]; TGF-β1 alone, 10 ng/ml): increased

Molecule: tenascin-C: drug used for wound treatment, purchased from EMD-Millipore
- increase in α-SMA expression by TGF-β1 ([2]; 2 μg/ml tenascin-C with TGF-β1): slightly inhibited

Molecule: plasma fibronectin: fibronectin bovine plasma product purchased from Sigma-Aldrich; polypeptide of SEQ ID NO: 1
- M/C ratio (cervix of C57BL/6 mice; [5]): decreased
- M/C ratio (cervix of C57BL/6 mice; [6]): decreased
- collagen expression [2, 7]: slightly decreased
- expression level of α-SMA [2, 7]: decreased as much as in the control group
- ratio of α-SMA/collagen 1 [2, 7]: reduced

Molecule: NC(=O)c1ccc(-c2nc(-c3ccc4c(c3)OCO4)c(-c3ccccn3)[nH]2)cc1 [SB-431542, 4-(5-benzol [1,3]dioxol-5-yl-4-pyrldin-2-yl-1H-imidazol-2-yl)-benzamide]
- expression of α-SMA protein ([1]; 8 μM SB-431542 with 10 ng/ml TGF-β1, two days after treatment): decreased; also recorded: significantly reduced
- collagen 1 expression ([1]; SB-431542 with TGF-β1): no effect
- mRNA expression level of α-SMA [3]: no significant change
- fluorescence detection of α-SMA [4]: reduced
- M/C ratio (cervix of C57BL/6 mice; intraperitoneal, 10 mg/kg daily for 3 weeks): lower than that of the cervical excision group
- M/C ratio (cervix of C57BL/6 mice; [5]): no significant change
- M/C ratio (cervix of C57BL/6 mice; [6]): no significant change
- M/C ratio (cervix of C57BL/6 mice; oral administration, 10 mg/kg daily for 3 weeks): lower than that of the cervical excision group

Molecule: chondroitin sulfate
- increase in α-SMA expression by TGF-β1 ([2]; 50 μg/ml chondroitin sulfate with TGF-β1): slightly inhibited

B1: TGF-β3: drug used for wound treatment, purchased from Sigma-Aldrich (protein, UniProt P10600 301-412, looked up)
Transforming growth factor …: ALDTNYCFRNLEENCCVRPLYIDFRQDLGWKWVHEPKGYYANFCSGPCPYLRSADTTHSTVLGLYNTLNPEASASPCCVPQDLEPLTILYYVGRTPKVEQLSNMVVKSCKCS
modifications: Transforming growth factor beta-3
notes: drug used for wound treatment, purchased from Sigma-Aldrich
- increase in α-SMA expression by TGF-β1 ([2]; 10 μg/ml TGF-β3 with TGF-β1): slightly inhibited
